From patent US20230322812A1, “CRYSTALLINE FORM OF HETEROBICYCLIC COMPOUND” (TAIHO PHARMACEUTICAL CO., LTD., priority 2020, published 2023)

Tests used:
[1] = Solid stability of crystal I (storage, chemical purity by HPLC); format: physicochemical; conditions: stored at 40° C. (humidity not controlled), 40° C. (humidity 75%) and 60° C. (humidity not controlled) for 4 weeks, all conditions
Procedure: (iii) High-Performance Liquid Chromatography
Measurement by high-performance liquid chromatography was performed under the following conditions.
Mobile Phase A: 10 mM phos. Buffer (pH6.3)/acetonitrile (95:5)
Mobile Phase B: acetonitrile
Column: Gemini C18 (4.6x 150 mm, 3 μm)/Phenomenex
(§1) Crystal I of compound 1 was stored at 40° C. (humidity is not controlled), 40° C. (humidity 75%), and 60° C. (humidity is not controlled) for 4 weeks. Thereafter, the chemical purity was measured by high-performance liquid chromatography, and the change was 0.5% or less under all conditions.

[2] = Oral absorbability in rats (plasma concentration of compound 1); format: in vivo; conditions: 30 mg/kg, male Sprague Dawley rats
Procedure: Crystal I of compound 1 was suspended in a 0.5% HPMC aqueous solution, and orally administered to male Sprague Dawley rats which were supplied from Charles River Laboratories Japan, Inc. in a dosage of 30 mg/kg. After 1, 2, 4, 6, 8, and 24 hours from administration, blood of each rat was collected from the left jugular vein, and the concentration of compound 1 in plasma was measured.

[3] = Differential scanning calorimetry (phase transition on heating); format: physicochemical; conditions: crystal I of Example 1; temperature increased
Procedure: (ii) Differential Scanning calorimetry Measurement (DSC Measurement)
DSC measurement was performed under the following conditions.
Device: METTLER TOLEDO: DSC1 STAR System
Sample Container: made of aluminum
Temperature Range: 25 to 400° C.
Temperature Increase Rate: 10° C./min
Atmospheric Gas: Nitrogen
Nitrogen Gas Flow: 30 ml/min
as §1

[4] = Dynamic vapor sorption (DVS) system analysis; format: physicochemical
Procedure: Dynamic vapor sorption (DVS) system analysis was performed under the following conditions.
Apparatus: VTI SA+(manufactured by TA Instruments Inc.)
Drying temperature: 60° C.
Drying equilibrium: Within the range not exceeding 300 minutes, the sample was confirmed not to decrease by 0.01 wt % in 5 minutes
Measurement temperature: 25° C.
Humidification equilibrium: Within the range not exceeding 120 minutes, the sample was confirmed not to increase by 0.01 wt % in 5 minutes
Relative Humidity Program: An increase by 5% RH from 5% RH to 95% RH and a decrease by 5% RH from 95% RH to 5% RH
A dedicated quartz holder was filled with 10 to 15 mg of crystal I of compound 1, and the weight of each sample at each humidity was continuously measured and recorded under the conditions described above. The device and data processing were handled in accordance with the method and procedure instructed for each device.

Compound: Cn1nc2ccc(-c3c[nH]c4nc(N5[C@H]6CC[C@@H]5[C@H](N)C6)n(C)c(=O)c34)c(Cl)c2c1Cl (single isomer, unassigned) [Crystal I]
- change of chemical purity after storage [1]: ≤ 0.5%
- oral absorbability (plasma concentration reached) ([2]; 1-24 hours after administration): achieved a sufficient concentration that provides a medicinal effect
- Cmax ([2]; rat, suspended in 0.5% HPMC aqueous solution, plasma): 3.5 µM
- AUC(0-t) ([2]; rat, suspended in 0.5% HPMC aqueous solution, plasma, read-out: AUC0-24): 37 µM·h
- phase transition peak in DSC measurement [3]: no peak indicating a phase transition
- change in weight due to changes in humidity (DVS) ([4]; 25° C., 5% RH to 95% RH and back to 5% RH): no changes in weight
- powder X-ray crystal analysis before and after moisture adsorption and desorption ([4]; before and after DVS moisture adsorption and desorption): did not change
